According to US20230064809A1, “SUBSTITUTED AMINOQUINOLONES AS DGKALPHA INHIBITORS FOR IMMUNE ACTIVATION” (Bayer Aktiengesellschaft, priority 2019, published 2023):

These compounds were tested against DGKα (Homo sapiens, UniProt P23743) (assay: Human DGKα kinase activity inhibition assay (ADP-Glo)). Settings: in vitro, C-terminally FLAG-tagged recombinant full-length human DGKα, 1,2-dioleoyl-sn-glycerol substrate, ADP-Glo readout.
Type: biochemical
Design: made in house; host or cells: Sf9 insect cells, baculovirus
Procedure: Human DGKα Kinase Activity Inhibition Assay. Human DGKα inhibitory activity of compounds of the present invention was quantified employing the human DGKα kinase activity assay as described in the following paragraphs. In essence, the enzyme activity was measured by quantification of the adenosine-di-phosphate (ADP) generated as a co-product of the enzyme reaction via the “ADP-Glo™ Kinase Assay” kit from the company Promega. This detection system works as follows: In a first step the ATP not consumed in the kinase reaction is quantitatively converted to […] (“ADP-Glo-reagent”), then the adenylate cyclase is stopped and the ADP generated in the kinase reaction converted to ATP, which subsequently generates in a luciferase-based reaction a glow-luminescence signal (“Kinase Detection Reagent”). C-terminally FLAG-tagged, recombinant full-length human DGKα (expressed in baculovirus infected insect cells, purified using anti-Flag pulldown and size exclusion chromatography as described below, DGKa_hu_1) was used as enzyme. As substrate for the kinase 1,2-dioleoyl-sn-glycerol, reconstituted in octyl-β-D-glucopyranoside micelles, was used. For the preparation of the micelles, 1 volume of a 16.1 mM solution of 1,2-dioleoyl-sn-glycerol (Avanti, Cat. #08001-25G) in chloroform was slowly evaporated using a nitrogen stream. Subsequently, 22.55 volumes of a 510 mM solution of octyl-β-D-glucopyranoside (Sigma-Aldrich, Cat. #08001-10G) in 50 mM MOPS buffer (pH 7.4) were added, and the mixture was sonicated in an ultrasonic bath for 20 s. Then 35 volumes of 50 mM MOPS buffer (pH 7.4) were added to yield a solution of 0.28 mM 1,2 dioleoyl-sn-glycerol and 200 mM octyl-β-D-glucopyranoside, which was aliquoted, flash-frozen in liquid nitrogen, and stored at −20° C. until use. For each experiment, a fresh aliquot was quickly thawed and diluted 24-fold with aqueous assay buffer (described below) containing 95.7 μM adenosine triphosphate (Promega) to yield a 1.67-fold concentrated substrate solution. For the assay 50 nl of a 100-fold concentrated solution of the test compound in dimethyl sulfoxide (DMSO, Sigma) was pipetted into either a white 1536-well or a white low-volume 384-well microtiter plate (both Greiner Bio-One, Frickenhausen, Germany). […] The concentration of DGK a was adjusted depending of the activity of the enzyme lot and was chosen appropriate to have the assay in the linear range, a typical concentration is about 0.1 nM. The reaction was stopped by the addition of 2.5 μl of “ADP-Glo-reagent” (1 to 1.5 diluted with water) and the resulting mixture was incubated at 22° C. for 1 h to convert the ATP no t consumed in the kinase reaction completely to […]. […] The amount of emitted light was taken as a measure for the amount of ADP generated and thereby for the activity of the DGKα.

DGKα, sequence (P23743 with tags, fused parts or gaps): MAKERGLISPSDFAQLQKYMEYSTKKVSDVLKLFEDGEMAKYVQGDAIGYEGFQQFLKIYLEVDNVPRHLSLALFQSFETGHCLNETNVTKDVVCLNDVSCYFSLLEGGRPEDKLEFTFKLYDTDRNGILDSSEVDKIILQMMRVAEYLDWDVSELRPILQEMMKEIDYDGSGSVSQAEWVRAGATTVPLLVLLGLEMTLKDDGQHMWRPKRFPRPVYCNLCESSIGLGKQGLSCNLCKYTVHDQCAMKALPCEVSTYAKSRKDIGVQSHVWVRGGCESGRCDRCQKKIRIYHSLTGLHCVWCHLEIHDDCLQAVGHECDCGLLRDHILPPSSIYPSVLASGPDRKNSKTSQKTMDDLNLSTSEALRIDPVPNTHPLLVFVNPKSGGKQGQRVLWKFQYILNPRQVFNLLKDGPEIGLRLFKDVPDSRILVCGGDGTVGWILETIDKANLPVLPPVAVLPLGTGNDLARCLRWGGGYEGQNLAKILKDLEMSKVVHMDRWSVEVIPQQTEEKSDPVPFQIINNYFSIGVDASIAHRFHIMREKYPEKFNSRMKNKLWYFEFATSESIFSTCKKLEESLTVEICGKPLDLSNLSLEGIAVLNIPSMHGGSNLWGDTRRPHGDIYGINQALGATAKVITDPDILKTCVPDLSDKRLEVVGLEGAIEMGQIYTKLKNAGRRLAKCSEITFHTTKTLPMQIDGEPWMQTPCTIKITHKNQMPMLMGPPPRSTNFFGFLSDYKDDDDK

SMILES | IC50 [nM]
Cn1c(=O)c(C#N)c(N2CC3(CCCN(c4ccc(F)cc4)C3)C2)c2ccccc21 [Example 16, 4-[6-(4-fluorophenyl)-2,6-diazaspiro[3.5]nonan-2-yl]-1-methyl-2-oxo-1,2-dihydro-quinoline-3-carbonitrile] | 15
COc1ccc(N2CCC3(CCN(c4c(C#N)c(=O)n(C)c5ccccc45)CC3)C2)cc1 [Example 15, 4-[2-(4-methoxyphenyl)-2,8-diazaspiro[4.5]decan-8-yl]-1-methyl-2-oxo-1,2-dihydro-quinoline-3-carbonitrile] | 91
Cn1c(=O)c(C#N)c(N2CCC3(CN(c4ccc(F)cc4)C3)C2)c2ccccc21 [Example 4, 4-[2-(4-fluorophenyl)-2,6-diazaspiro[3.4]octan-6-yl]-1-methyl-2-oxo-1,2-dihydroquinoline-3-carbonitrile] | 35
Cn1c(=O)c(C#N)c(N2CCC3(CN(c4ccc(N5CCOCC5)cc4)C3)C2)c2ccccc21 [Example 24, 1-methyl-4-{2-[4-(morpholin-4-yl)phenyl]-2,6-diazaspiro[3.4]octan-6-yl}-2-oxo-1,2-dihydroquinoline-3-carbonitrile] | 1700
Cn1c(=O)c(C#N)c(N2CCC3(CN(c4ccc(N5CCCC5=O)cc4)C3)C2)c2ccccc21 [Example 22, 1-methyl-2-oxo-4-{2-[4-(2-oxopyrrolidin-1-yl)phenyl]-2,6-diazaspiro[3.4]octan-6-yl}-1,2-dihydroquinoline-3-carbonitrile] | 477
Cn1c(=O)c(C#N)c(N2CCC3(CCN(c4ccc(OC(F)(F)F)cc4)C3)CC2)c2ccccc21 [Example 8, 1-methyl-2-oxo-4-{2-[4-(trifluoromethoxy)phenyl]-2,8-diazaspiro[4.5]decan-8-yl}-1,2-dihydroquinoline-3-carbonitrile] | 17
Cn1c(=O)c(C#N)c(N2CCC3(CCN(c4cccc(OC(F)(F)F)c4)C3)CC2)c2ccccc21 [Example 12, 1-methyl-2-oxo-4-{2-[3-(trifluoromethoxy)phenyl]-2,8-diazaspiro[4.5]decan-8-yl}-1,2-dihydroquinoline-3-carbonitrile] | 50
COCCN(C)c1ccc2c(N3CCC4(CCN(c5cccc(OC(F)(F)F)c5)C4)CC3)c(C(N)=O)c(=O)n(C)c2c1 [Example 35, 7-[(2-methoxyethyl)(methyl)amino]-1-methyl-2-oxo-4-{2-[3-(trifluoromethoxy)phenyl]-2,8-diazaspiro[4.5]decan-8-yl}-1,2-dihydroquinoline-3-carboxamide] | 68
Cn1c(=O)c(C#N)c(N2CCC3(CN(c4ccc(Cl)cc4)C3)C2)c2ccc(Br)cc21 [Example 30, 7-bromo-4-[2-(4-chlorophenyl)-2,6-diazaspiro[3.4]octan-6-yl]-1-methyl-2-oxo-1,2-dihydroquinoline-3-carbonitrile] | 75
COCCN(C)c1ccc2c(N3CCC4(CCN(c5cccc(Cl)c5)C4)CC3)c(C#N)c(=O)n(C)c2c1 [Example 34, 4-[2-(3-chlorophenyl)-2,8-diazaspiro[4.5]decan-8-yl]-7-[(2-methoxyethyl)(methyl)amino]-1-methyl-2-oxo-1,2-dihydroquinoline-3-carbonitrile] | 19
CN1CCN(c2ccc3c(N4CCC5(CCN(c6cccc(OC(F)(F)F)c6)C5)CC4)c(C#N)c(=O)n(C)c3c2)CC1 [Example 31, 1-methyl-7-(4-methylpiperazin-1-yl)-2-oxo-4-{2-[3-(trifluoromethoxy)phenyl]-2,8-diazaspiro[4.5]decan-8-yl}-1,2-dihydroquinoline-3-carbonitrile] | 645
Cn1c(=O)c(C#N)c(N2CCC3(CN(c4ccc(OC(F)(F)F)cc4)C3)C2)c2ccc(Br)cc21 [Example 29, 7-bromo-1-methyl-2-oxo-4-{2-[4-(trifluoromethoxy)phenyl]-2,6-diazaspiro[3.4]octan-6-yl}-1,2-dihydroquinoline-3-carbonitrile] | 46
Cn1c(=O)c(C(N)=O)c(N2CCC3(CN(c4ccc(Cl)cc4)C3)C2)c2ccccc21 [Example 26, 4-[2-(4-chlorophenyl)-2,6-diazaspiro[3.4]octan-6-yl]-1-methyl-2-oxo-1,2-dihydroquinoline-3-carboxamide] | 42
Cn1c(=O)c(C#N)c(N2CCC3(CN(c4ccc(Cl)cc4)C3)C2)c2ccccc21 [Example 6, 4-[2-(4-chlorophenyl)-2,6-diazaspiro[3.4]octan-6-yl]-1-methyl-2-oxo-1,2-dihydroquinoline-3-carbonitrile] | 10
Cn1c(=O)c(C#N)c(N2CCC3(CN(c4ccc(OC(F)(F)F)cc4)C3)C2)c2ccccc21 [Example 17, 1-methyl-2-oxo-4-{2-[4-(trifluoromethoxy)phenyl]-2,6-diazaspiro[3.4]octan-6-yl}-1,2-dihydroquinoline-3-carbonitrile] | 3.5
Cn1c(=O)c(C(N)=O)c(N2CCC3(CCN(c4ccc(OC(F)(F)F)cc4)C3)CC2)c2ccccc21 [Example 25, 1-methyl-2-oxo-4-{2-[4-(trifluoromethoxy)phenyl]-2,8-diazaspiro[4.5]decan-8-yl}-1,2-dihydroquinoline-3-carboxamide] | 3

Further compounds by falling IC50, results first:

IC50 [nM] | SMILES
1720 | CN(C)c1ccc(N2CC3(CCN(c4c(C(N)=O)c(=O)n(C)c5ccccc45)C3)C2)cc1 [Example 28, 4-{2-[4-(dimethylamino)phenyl]-2,6-diazaspiro[3.4]octan-6-yl}-1-methyl-2-oxo-1,2-dihydroquinoline-3-carboxamide]
163 | CN(C)c1ccc(N2CC3(CCN(c4c(C#N)c(=O)n(C)c5ccccc45)C3)C2)cc1 [Example 21, 4-{2-[4-(dimethylamino)phenyl]-2,6-diazaspiro[3.4]octan-6-yl}-1-methyl-2-oxo-1,2-dihydroquinoline-3-carbonitrile]
158 | Cn1c(=O)c(C(N)=O)c(N2CCC3(CN(c4ccc(F)cc4)C3)C2)c2ccccc21 [Example 27, 4-[2-(4-fluorophenyl)-2,6-diazaspiro[3.4]octan-6-yl]-1-methyl-2-oxo-1,2-dihydroquinoline-3-carboxamide]
122 | Cn1c(=O)c(C#N)c(N2CCC3(CCN(c4ccc(OC(F)(F)F)cc4)C3)C2)c2ccccc21 (centres unmarked) [Example 19, 1-methyl-2-oxo-4-{7-[4-(trifluoromethoxy)phenyl]-2,7-diazaspiro[4.4]nonan-2-yl}-1,2-dihydroquinoline-3-carbonitrile]
103 | COc1ccc(N2CC3(CCN(c4c(C#N)c(=O)n(C)c5ccccc45)C3)C2)cc1 [Example 5, 4-[2-(4-methoxyphenyl)-2,6-diazaspiro[3.4]octan-6-yl]-1-methyl-2-oxo-1,2-dihydro-quinoline-3-carbonitrile]
63 | Cn1c(=O)c(C#N)c(N2CC3(CCN(c4ccc(F)cc4)C3)C2)c2ccccc21 [Example 7, 4-[6-(4-fluorophenyl)-2,6-diazaspiro[3.4]octan-2-yl]-1-methyl-2-oxo-1,2-dihydroquinoline-3-carbonitrile]
49 | COCCN(C)c1ccc2c(N3CCC4(CCN(c5cccc(Cl)c5)C4)CC3)c(C(N)=O)c(=O)n(C)c2c1 [Example 36, 4-[2-(3-chlorophenyl)-2,8-diazaspiro[4.5]decan-8-yl]-7-[(2-methoxyethyl)(methyl)amino]-1-methyl-2-oxo-1,2-dihydroquinoline-3-carboxamide]
38 | COCCN(C)c1ccc2c(N3CCC4(CCN(c5cccc(OC(F)(F)F)c5)C4)CC3)c(C#N)c(=O)n(C)c2c1 [Example 32, 7-[(2-methoxyethyl)(methyl)amino]-1-methyl-2-oxo-4-{2-[3-(trifluoromethoxy)phenyl]-2,8-diazaspiro[4.5]decan-8-yl}-1,2-dihydroquinoline-3-carbonitrile]
38 | Cn1c(=O)c(C#N)c(N2CCC3(CCN(c4ccc(F)cc4)C3)CC2)c2ccccc21 [Example 2, 4-[2-(4-fluorophenyl)-2,8-diazaspiro[4.5]decan-8-yl]-1-methyl-2-oxo-1,2-dihydroquinoline-3-carbonitrile]
11 | COc1cccc(N2CCC3(CCN(c4c(C#N)c(=O)n(C)c5ccccc45)CC3)C2)c1 [Example 9, 4-[2-(3-methoxyphenyl)-2,8-diazaspiro[4.5]decan-8-yl]-1-methyl-2-oxo-1,2-dihydro-quinoline-3-carbonitrile]
